ChEMBL document CHEMBL4725427, “Synthesis and SAR Studies of 1H-Pyrrolo[2,3-b]pyridine-2-carboxamides as Phosphodiesterase 4B (PDE4B) Inhibitors” (ACS Med Chem Lett, 2020)

What was measured:
[1] = molecular target: 3',5'-cyclic-AMP phosphodiesterase 4B (Homo sapiens, UniProt Q07343); assay: Inhibition of recombinant human C-terminal His-tagged N-terminal GST-tagged PDE4B2 expressed in baculovirus infected Sf9 cells by radioligand binding assay; format: cell-based
[2] = Effect on TNFalpha production in C57BL/6 mouse bone marrow derived Macrophage at 1 to 10 uM incubated for 30 mins by ELISA; details: 0.5 h
[3] = Metabolic stability in human liver microsomes assessed as intrinsic clearance; format: ADME, Microsome; details: read-out: CLH
[4] = Protein binding in human plasma assessed as unbound fraction; format: ADME, cell-free
[5] = Metabolic stability in human Hepatocyte assessed as half life; format: ADME, tissue-based; details: hepatocytes
[6] = molecular target: Dual specificity calcium/calmodulin-dependent 3',5'-cyclic nucleotide phosphodiesterase 1B (Homo sapiens) (UniProt Q01064); assay: Inhibition of recombinant human N-terminal GST-tagged PDE1B expressed in baculovirus infected Sf9 cells at 10 uM by radioligand assay relative to control
[7] = molecular target: Dual specificity calcium/calmodulin-dependent 3',5'-cyclic nucleotide phosphodiesterase 1A (Homo sapiens) (UniProt P54750); assay: Inhibition of recombinant human N-terminal GST-tagged PDE1A1 expressed in baculovirus infected Sf9 cells at 10 uM by radioligand assay relative to control
[8] = molecular target: cGMP-dependent 3',5'-cyclic phosphodiesterase (Homo sapiens) (UniProt O00408); assay: Inhibition of recombinant human N-terminal FLAG-tagged PDE2A1 (2 to 941 residues) expressed in baculovirus infected Sf9 cells at 10 uM by radioligand assay relative to control
[9] = molecular target: cGMP-inhibited 3',5'-cyclic phosphodiesterase 3A (Homo sapiens) (UniProt Q14432); assay: Inhibition of recombinant human N-terminal His-tagged PDE3A (669 to 1141 end residues) expressed in baculovirus infected Sf9 cells at 10 uM by radioligand assay relative to control
[10] = molecular target: 3',5'-cyclic-AMP phosphodiesterase 4C (Homo sapiens) (UniProt Q08493); assay: Inhibition of recombinant human N-terminal GST-tagged PDE4C1 expressed in baculovirus infected Sf9 cells at 10 uM by radioligand assay relative to control
[11] = molecular target: 3',5'-cyclic-AMP phosphodiesterase 4D (Homo sapiens) (UniProt Q08499); assay: Inhibition of recombinant human N-terminal GST-tagged PDE4D3 expressed in baculovirus infected Sf9 cells at 10 uM by radioligand assay relative to control
[12] = molecular target: cGMP-specific 3',5'-cyclic phosphodiesterase (Homo sapiens) (UniProt O76074); assay: Inhibition of recombinant human N-terminal GST-tagged PDE5A1 expressed in baculovirus infected Sf9 cells at 10 uM by radioligand assay relative to control
[13] = molecular target: High affinity 3',5'-cyclic-AMP phosphodiesterase 7A (Homo sapiens) (UniProt Q13946); assay: Inhibition of recombinant human N-terminal GST-tagged PDE7A1 (122 to end residues) expressed in baculovirus infected Sf9 cells at 10 uM by radioligand assay relative to control
[14] = molecular target: 3',5'-cyclic-AMP phosphodiesterase 7B (Homo sapiens) (UniProt Q9NP56); assay: Inhibition of recombinant human N-terminal GST-tagged C-terminal His-tagged PDE7B (109 to end residues) expressed in baculovirus infected Sf9 cells at 10 uM by radioligand assay relative to control
[15] = molecular target: High affinity cAMP-specific and IBMX-insensitive 3',5'-cyclic phosphodiesterase 8A (Homo sapiens) (UniProt O60658); assay: Inhibition of recombinant human N-terminal GST-tagged PDE8A1 expressed in baculovirus infected Sf9 cells at 10 uM by radioligand assay relative to control
[16] = molecular target: cAMP and cAMP-inhibited cGMP 3',5'-cyclic phosphodiesterase 10A (Homo sapiens) (UniProt Q9Y233); assay: Inhibition of recombinant human N-terminal GST-tagged PDE10A2 expressed in baculovirus infected Sf9 cells at 10 uM by radioligand assay relative to control
[17] = molecular target: 5-hydroxytryptamine receptor 1A (Homo sapiens) (UniProt P08908); assay: Inhibition of 5HT1A (unknown origin) relative to control; details: concentration not given here
[18] = molecular target: 5-hydroxytryptamine receptor 1B (Homo sapiens) (UniProt P28222); assay: Inhibition of 5HT1B (unknown origin) relative to control; details: concentration not given here
[19] = molecular target: 5-hydroxytryptamine receptor 2A (Homo sapiens) (UniProt P28223); assay: Inhibition of 5HT2A (unknown origin) relative to control; details: concentration not given here
[20] = molecular target: 5-hydroxytryptamine receptor 2C (Homo sapiens) (UniProt P28335); assay: Inhibition of 5HT2C (unknown origin) relative to control; details: concentration not given here
[21] = molecular target: 5-hydroxytryptamine receptor 6 (Homo sapiens) (UniProt P50406); assay: Inhibition of 5HT6 (unknown origin) relative to control; details: concentration not given here
[22] = molecular target: Alpha-1B adrenergic receptor (Homo sapiens) (UniProt P35368); assay: Inhibition of adrenoceptor alpha 1B (unknown origin) relative to control; details: concentration not given here
[23] = molecular target: Alpha-2A adrenergic receptor (Homo sapiens) (UniProt P08913); assay: Inhibition of adrenoceptor alpha 2A (unknown origin) relative to control; details: concentration not given here
[24] = molecular target: Alpha-2C adrenergic receptor (Homo sapiens) (UniProt P18825); assay: Inhibition of adrenoceptor alpha 2C (unknown origin) relative to control; details: concentration not given here
[25] = molecular target: Beta-2 adrenergic receptor (Homo sapiens) (UniProt P07550); assay: Inhibition of adrenoceptor beta2 (unknown origin) relative to control; details: concentration not given here
[26] = molecular target: D(3) dopamine receptor (Homo sapiens) (UniProt P35462); assay: Inhibition of D3 (unknown origin) relative to control; details: concentration not given here
[27] = molecular target: D(4) dopamine receptor (Homo sapiens) (UniProt P21917); assay: Inhibition of D4 (unknown origin) relative to control; details: concentration not given here
[28] = molecular target: Sodium-dependent dopamine transporter (Homo sapiens) (UniProt Q01959); assay: Inhibition of DAT receptor (unknown origin) relative to control; details: concentration not given here
[29] = molecular target: Delta-type opioid receptor (Homo sapiens) (UniProt P41143); assay: Inhibition of DOR receptor (unknown origin) relative to control; details: concentration not given here
[30] = molecular target: Histamine H1 receptor (Homo sapiens) (UniProt P35367); assay: Inhibition of histamine H1 receptor (unknown origin) relative to control; details: concentration not given here
[31] = molecular target: Muscarinic acetylcholine receptor M1 (Homo sapiens) (UniProt P11229); assay: Inhibition of muscarinic M1 receptor (unknown origin) relative to control; details: concentration not given here
[32] = molecular target: Muscarinic acetylcholine receptor M2 (Homo sapiens) (UniProt P08172); assay: Inhibition of muscarinic M2 receptor (unknown origin) relative to control; details: concentration not given here
[33] = molecular target: Muscarinic acetylcholine receptor M4 (Homo sapiens) (UniProt P08173); assay: Inhibition of muscarinic M4 receptor (unknown origin) relative to control; details: concentration not given here
[34] = molecular target: Muscarinic acetylcholine receptor M5 (Homo sapiens) (UniProt P08912); assay: Inhibition of muscarinic M5 receptor (unknown origin) relative to control; details: concentration not given here
[35] = molecular target: Mu-type opioid receptor (Homo sapiens) (UniProt P35372); assay: Inhibition of MOR (unknown origin) relative to control; details: concentration not given here
[36] = molecular target: Translocator protein TSPO (Homo sapiens) (UniProt P30536); assay: Inhibition of PBR receptor (unknown origin) relative to control; details: concentration not given here

Beta-2 adrenergic receptor (Homo sapiens), sequence (P07550 whole entry, looked up): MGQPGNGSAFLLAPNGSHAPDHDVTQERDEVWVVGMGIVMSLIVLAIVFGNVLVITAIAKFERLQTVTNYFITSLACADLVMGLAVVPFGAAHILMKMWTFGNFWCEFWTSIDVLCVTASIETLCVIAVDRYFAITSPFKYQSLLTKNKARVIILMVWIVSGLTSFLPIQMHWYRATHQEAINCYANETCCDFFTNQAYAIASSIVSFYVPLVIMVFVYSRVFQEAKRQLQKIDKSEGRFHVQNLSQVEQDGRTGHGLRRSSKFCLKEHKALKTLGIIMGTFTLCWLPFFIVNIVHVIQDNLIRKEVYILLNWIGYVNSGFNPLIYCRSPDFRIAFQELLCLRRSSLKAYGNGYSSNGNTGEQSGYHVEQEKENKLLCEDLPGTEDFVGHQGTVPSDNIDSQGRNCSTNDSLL
3',5'-cyclic-AMP phosphodiesterase 4D (Homo sapiens), sequence (Q08499 whole entry): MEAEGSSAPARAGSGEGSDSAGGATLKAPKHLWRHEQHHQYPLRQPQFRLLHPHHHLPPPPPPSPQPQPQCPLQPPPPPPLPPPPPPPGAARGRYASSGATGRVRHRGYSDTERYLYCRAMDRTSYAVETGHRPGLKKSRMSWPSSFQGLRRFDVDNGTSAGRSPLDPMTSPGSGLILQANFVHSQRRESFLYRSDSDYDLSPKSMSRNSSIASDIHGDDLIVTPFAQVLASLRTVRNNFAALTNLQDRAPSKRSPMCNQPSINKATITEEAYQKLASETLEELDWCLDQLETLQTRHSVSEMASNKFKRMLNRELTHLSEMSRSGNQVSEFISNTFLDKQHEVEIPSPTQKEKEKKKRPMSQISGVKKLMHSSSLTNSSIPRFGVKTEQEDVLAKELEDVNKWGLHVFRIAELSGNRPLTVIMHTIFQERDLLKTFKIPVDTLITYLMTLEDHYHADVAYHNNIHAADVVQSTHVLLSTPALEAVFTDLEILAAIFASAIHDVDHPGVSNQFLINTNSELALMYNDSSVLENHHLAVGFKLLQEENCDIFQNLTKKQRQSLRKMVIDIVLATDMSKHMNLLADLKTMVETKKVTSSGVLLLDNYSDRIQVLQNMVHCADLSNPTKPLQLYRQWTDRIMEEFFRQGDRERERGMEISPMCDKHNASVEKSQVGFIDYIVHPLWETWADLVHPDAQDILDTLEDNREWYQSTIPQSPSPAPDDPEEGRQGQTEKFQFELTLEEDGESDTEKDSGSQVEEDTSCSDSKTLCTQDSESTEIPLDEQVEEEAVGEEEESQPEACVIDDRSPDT
5-hydroxytryptamine receptor 1A (Homo sapiens), sequence (P08908 whole entry): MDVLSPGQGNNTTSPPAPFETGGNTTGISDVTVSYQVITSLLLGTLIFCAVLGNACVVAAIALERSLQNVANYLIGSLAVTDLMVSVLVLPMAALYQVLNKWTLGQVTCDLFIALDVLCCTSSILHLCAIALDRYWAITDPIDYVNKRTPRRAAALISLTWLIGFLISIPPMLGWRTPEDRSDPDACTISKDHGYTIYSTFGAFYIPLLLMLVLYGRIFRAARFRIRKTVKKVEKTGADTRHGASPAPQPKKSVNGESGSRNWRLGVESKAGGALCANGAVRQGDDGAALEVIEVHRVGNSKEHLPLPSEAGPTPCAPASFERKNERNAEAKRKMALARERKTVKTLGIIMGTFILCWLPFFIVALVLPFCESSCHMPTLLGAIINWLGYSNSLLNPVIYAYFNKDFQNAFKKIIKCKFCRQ
5-hydroxytryptamine receptor 2C (Homo sapiens), sequence (P28335 whole entry): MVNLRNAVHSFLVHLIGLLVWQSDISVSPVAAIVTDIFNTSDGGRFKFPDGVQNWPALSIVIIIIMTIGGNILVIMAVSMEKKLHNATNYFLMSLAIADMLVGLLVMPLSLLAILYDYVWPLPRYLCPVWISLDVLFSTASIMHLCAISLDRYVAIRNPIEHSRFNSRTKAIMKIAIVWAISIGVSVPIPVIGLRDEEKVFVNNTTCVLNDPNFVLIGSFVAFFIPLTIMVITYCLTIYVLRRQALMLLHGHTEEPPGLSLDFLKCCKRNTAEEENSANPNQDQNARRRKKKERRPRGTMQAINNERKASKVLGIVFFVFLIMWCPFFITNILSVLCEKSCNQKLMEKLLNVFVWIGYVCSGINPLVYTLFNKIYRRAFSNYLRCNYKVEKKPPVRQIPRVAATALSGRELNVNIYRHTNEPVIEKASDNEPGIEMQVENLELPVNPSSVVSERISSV
3',5'-cyclic-AMP phosphodiesterase 4C (Homo sapiens), sequence (Q08493 whole entry): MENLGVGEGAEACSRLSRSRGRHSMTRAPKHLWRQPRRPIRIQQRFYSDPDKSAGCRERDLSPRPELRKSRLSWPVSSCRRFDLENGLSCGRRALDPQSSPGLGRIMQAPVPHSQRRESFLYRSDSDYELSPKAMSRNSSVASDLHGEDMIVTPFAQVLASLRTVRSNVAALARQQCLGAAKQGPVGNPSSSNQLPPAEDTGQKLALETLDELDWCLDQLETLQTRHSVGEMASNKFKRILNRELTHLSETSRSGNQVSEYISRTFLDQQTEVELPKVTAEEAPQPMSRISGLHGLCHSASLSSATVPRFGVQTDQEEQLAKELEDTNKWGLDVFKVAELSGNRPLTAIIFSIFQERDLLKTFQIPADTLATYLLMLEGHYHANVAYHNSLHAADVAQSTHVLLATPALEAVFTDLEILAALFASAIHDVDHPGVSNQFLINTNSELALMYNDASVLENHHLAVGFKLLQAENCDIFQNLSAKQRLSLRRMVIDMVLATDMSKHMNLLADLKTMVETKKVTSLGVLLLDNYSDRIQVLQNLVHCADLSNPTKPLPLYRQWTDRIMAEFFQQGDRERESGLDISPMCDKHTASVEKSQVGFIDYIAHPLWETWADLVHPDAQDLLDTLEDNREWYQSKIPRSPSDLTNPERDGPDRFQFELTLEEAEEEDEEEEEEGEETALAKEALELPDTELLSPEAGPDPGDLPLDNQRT
Muscarinic acetylcholine receptor M1 (Homo sapiens), sequence (P11229 whole entry): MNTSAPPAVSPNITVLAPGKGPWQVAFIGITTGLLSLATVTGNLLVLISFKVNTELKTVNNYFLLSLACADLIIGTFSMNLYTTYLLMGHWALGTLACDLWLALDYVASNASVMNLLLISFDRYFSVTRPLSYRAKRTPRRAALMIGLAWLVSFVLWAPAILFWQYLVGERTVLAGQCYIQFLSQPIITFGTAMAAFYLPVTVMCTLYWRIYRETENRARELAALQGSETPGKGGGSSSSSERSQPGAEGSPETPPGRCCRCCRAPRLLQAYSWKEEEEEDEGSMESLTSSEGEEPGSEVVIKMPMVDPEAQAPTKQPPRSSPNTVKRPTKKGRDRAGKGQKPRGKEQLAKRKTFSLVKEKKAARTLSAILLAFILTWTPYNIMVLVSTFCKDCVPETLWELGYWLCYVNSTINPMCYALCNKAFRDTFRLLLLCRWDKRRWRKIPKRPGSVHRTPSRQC
D(3) dopamine receptor (Homo sapiens), sequence (P35462 whole entry): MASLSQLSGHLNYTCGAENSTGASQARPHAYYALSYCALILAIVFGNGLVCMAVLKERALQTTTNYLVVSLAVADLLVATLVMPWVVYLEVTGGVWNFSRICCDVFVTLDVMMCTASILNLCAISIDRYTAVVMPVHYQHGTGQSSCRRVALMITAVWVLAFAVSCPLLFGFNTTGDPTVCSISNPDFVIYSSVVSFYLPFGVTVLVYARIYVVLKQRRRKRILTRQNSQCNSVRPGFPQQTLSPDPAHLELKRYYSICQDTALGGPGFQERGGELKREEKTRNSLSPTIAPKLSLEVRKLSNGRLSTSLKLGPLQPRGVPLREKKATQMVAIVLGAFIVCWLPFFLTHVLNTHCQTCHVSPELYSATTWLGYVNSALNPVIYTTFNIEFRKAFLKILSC
Mu-type opioid receptor (Homo sapiens), sequence (P35372 whole entry): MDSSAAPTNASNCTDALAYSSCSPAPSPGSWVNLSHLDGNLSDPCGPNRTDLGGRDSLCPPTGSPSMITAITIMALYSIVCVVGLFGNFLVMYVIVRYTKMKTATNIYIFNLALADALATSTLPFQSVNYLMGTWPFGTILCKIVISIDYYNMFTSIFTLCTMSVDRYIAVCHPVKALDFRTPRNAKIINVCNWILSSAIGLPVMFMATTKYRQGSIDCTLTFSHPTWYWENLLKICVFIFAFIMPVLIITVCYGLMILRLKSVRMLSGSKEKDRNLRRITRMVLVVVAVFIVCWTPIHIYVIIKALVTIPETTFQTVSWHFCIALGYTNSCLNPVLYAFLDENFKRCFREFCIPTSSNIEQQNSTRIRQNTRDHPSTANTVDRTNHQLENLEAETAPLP
Muscarinic acetylcholine receptor M5 (Homo sapiens), sequence (P08912 whole entry): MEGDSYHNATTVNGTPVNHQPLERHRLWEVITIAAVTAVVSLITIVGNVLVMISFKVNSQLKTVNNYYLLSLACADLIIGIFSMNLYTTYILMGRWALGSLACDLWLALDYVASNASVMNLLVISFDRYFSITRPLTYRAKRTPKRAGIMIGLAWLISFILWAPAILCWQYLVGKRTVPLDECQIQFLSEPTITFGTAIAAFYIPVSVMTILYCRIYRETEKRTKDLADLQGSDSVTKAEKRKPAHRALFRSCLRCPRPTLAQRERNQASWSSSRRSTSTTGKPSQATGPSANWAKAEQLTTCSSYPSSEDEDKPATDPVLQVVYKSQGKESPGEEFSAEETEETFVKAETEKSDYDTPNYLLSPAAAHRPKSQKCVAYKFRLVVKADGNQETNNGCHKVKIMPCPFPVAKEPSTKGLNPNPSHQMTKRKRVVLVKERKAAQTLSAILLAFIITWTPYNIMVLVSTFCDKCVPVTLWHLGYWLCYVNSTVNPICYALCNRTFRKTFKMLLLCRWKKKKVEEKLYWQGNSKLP
5-hydroxytryptamine receptor 1B (Homo sapiens), sequence (P28222 whole entry): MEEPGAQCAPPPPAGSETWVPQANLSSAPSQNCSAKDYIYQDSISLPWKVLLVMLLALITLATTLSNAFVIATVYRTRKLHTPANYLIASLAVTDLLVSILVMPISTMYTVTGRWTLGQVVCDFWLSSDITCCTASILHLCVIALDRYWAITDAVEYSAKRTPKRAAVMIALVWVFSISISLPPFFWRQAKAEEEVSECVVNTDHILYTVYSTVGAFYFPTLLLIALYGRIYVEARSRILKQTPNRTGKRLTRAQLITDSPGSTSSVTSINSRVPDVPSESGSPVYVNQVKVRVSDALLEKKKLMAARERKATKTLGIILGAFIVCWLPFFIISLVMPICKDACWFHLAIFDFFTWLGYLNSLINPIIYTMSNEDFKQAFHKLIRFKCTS

**Q.** Which results are given for `O=C(c1nc2cccnc2n1-c1ccc(Cl)c(Cl)c1)N1CC(F)(F)C1`?
**A.** IC50 [1]: 140 nM; Activity [2]: Non-Toxic; CLint scaled [3]: 97.1 mL/min/kg; fraction unbound [4]: 0.038; half-life [5]: 49.4 min; inhibition [6]: < 50%; inhibition [7]: < 50%; inhibition [8]: < 50%; inhibition [9]: < 50%; inhibition [10]: < 50%; inhibition [11]: < 50%; inhibition [12]: < 50%; inhibition [13]: < 50%; inhibition [14]: < 50%; inhibition [15]: < 50%; inhibition [16]: < 50%; inhibition [17]: < 50%; inhibition [18]: < 50%; inhibition [19]: < 50%; inhibition [20]: 59%; inhibition [21]: < 50%; inhibition [22]: < 50%; inhibition [23]: < 50%; inhibition [24]: < 50%; inhibition [25]: < 50%; inhibition [26]: < 50%; inhibition [27]: < 50%; inhibition [28]: < 50%; inhibition [29]: < 50%; inhibition [30]: < 50%; inhibition [31]: < 50%; inhibition [32]: < 50%; inhibition [33]: < 50%; inhibition [34]: < 50%; inhibition [35]: < 50%; inhibition [36]: < 50%
